Active and inactive are the calls of the source.
Legend:
[1] = target: Kallikrein-7 (Homo sapiens, UniProt P49862); assay: Fluorescence Intensity-based biochemical primary high throughput dose response assay to identify activators of kallikrein-7 (K7) zymogen.
[2] = optical artefact potency, substrate without enzyme – biochemical, fluorescence intensity, triplicate, artefact control for kallikrein-7 zymogen activator project, dose response (AID 720493)
[3] = blockers of HIV-1 envelope-mediated cell-cell fusion – cherry-pick, dose response (AID 652057); assay type: functional, cell-based
[4] = viability loss in CEM21 cells – cell-based, CellTiter-Glo luminescence, cherry-picked, cytotoxicity control for viral fusion inhibitor project, dose response (AID 652042); assay type: functional;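 note: potency for signal decrease meaning cytotoxicity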
[5] = blockers of HIV-1 ZM109 envelope-driven cell-cell fusion – HeLa effector, CEM target cells, luciferase, cherry-pick, dose response (AID 652058); assay type: functional, cell-based;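 note: luciferase signal from HIV-1 Env mediated cell-cell fusion of effector and target cells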
[6] = off-target signal loss in HeLa-CEM21 co-culture – HeLa F-luc CTL cells, cherry-picked, counter-screen for HIV-1 Env fusion inhibitor project, dose response (AID 652040); assay type: functional, cell-based;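 note: potency for signal decrease marking cytotoxic or nonspecific inhibition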
[7] = HIV-1 AD8 envelope cell-cell fusion blockers – cherry-pick, dose response (AID 652062); assay type: functional, cell-based;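 note: luciferase signal from cell-cell fusion driven by HIV-1 clade B AD8 Env; potency is for inhibitors of fusion seen as a drop in luminescence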
[8] = viability loss in CEM21 cells – cell-based, plate reader, dry powder, cytotoxicity control, dose response (AID 687026); assay type: functional
[9] = target: T1, Corticotropin-releasing factor receptor 2/Corticotropin-releasing factor-binding protein (Homo sapiens, UniProt P24387+Q13324); assay: activators of CRF receptor 2 with binding protein – uHTS hits, confirmation (AID 602473); assay type: functional; conditions: read-out: EC50_Mean
T1 sequence (Q13324 whole entry): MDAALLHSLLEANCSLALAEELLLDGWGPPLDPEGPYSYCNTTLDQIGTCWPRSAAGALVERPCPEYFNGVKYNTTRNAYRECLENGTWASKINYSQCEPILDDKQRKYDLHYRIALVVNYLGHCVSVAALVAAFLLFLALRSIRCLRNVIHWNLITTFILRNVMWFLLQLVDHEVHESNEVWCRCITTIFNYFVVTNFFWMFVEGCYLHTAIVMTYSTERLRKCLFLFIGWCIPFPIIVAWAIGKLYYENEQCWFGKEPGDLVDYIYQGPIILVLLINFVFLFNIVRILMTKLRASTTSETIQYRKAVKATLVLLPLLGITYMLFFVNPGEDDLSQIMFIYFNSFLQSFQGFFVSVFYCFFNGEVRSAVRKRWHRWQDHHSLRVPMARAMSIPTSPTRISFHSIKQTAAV
T1 sequence (P24387 whole entry): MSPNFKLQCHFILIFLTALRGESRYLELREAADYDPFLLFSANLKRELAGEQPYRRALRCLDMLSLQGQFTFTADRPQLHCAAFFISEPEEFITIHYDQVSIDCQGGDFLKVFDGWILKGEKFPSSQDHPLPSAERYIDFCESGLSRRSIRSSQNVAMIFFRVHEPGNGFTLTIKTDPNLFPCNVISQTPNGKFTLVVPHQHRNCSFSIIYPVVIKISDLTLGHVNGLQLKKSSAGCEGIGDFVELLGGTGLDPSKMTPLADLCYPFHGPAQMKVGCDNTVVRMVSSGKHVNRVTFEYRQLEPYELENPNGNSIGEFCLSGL

[10] = viability loss in HEK293T cells – cell-based, cherry-picks, cytotoxicity control for HIV Vif inhibitor project, dose response (AID 652208); assay type: functional
[11] = target: ADP-ribosylation factor GTPase-activating protein 1 (Rattus norvegicus, UniProt Q62848); assay: Fluorescence polarization-based biochemical high throughput dose response screening assay to identify inhibitors of ADP-ribosylation factor GTPase activating protein 1 (ARFGAP1).; assay type: functional
Chain of ADP-ribosylation factor GTPase-activating protein 1 (Q62848 whole entry, the tested form may be a part): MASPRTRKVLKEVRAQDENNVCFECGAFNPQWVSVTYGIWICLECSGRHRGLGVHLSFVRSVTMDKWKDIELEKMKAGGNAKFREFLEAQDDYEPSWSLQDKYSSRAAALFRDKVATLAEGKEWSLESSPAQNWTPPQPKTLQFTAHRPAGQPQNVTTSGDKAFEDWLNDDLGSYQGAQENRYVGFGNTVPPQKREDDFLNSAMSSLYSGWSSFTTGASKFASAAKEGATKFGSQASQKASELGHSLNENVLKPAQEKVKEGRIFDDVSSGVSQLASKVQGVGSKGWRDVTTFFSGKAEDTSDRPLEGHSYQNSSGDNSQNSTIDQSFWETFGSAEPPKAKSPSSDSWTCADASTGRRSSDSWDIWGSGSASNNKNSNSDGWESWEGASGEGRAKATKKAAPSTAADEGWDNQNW

[12] = target: Arf-GAP with SH3 domain, ANK repeat and PH domain-containing protein 1 (Homo sapiens, UniProt Q9ULH1); assay type: functional;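 note: biochemical fluorescence polarization dose–response screen measuring inhibition of ASAP1; ASAP1 GAP domain stimulating GTP hydrolysis by truncated human ARF1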
Chain of Arf-GAP with SH3 domain, ANK repeat and PH domain-containing protein 1 (Q9ULH1 whole entry, the tested form may be a part): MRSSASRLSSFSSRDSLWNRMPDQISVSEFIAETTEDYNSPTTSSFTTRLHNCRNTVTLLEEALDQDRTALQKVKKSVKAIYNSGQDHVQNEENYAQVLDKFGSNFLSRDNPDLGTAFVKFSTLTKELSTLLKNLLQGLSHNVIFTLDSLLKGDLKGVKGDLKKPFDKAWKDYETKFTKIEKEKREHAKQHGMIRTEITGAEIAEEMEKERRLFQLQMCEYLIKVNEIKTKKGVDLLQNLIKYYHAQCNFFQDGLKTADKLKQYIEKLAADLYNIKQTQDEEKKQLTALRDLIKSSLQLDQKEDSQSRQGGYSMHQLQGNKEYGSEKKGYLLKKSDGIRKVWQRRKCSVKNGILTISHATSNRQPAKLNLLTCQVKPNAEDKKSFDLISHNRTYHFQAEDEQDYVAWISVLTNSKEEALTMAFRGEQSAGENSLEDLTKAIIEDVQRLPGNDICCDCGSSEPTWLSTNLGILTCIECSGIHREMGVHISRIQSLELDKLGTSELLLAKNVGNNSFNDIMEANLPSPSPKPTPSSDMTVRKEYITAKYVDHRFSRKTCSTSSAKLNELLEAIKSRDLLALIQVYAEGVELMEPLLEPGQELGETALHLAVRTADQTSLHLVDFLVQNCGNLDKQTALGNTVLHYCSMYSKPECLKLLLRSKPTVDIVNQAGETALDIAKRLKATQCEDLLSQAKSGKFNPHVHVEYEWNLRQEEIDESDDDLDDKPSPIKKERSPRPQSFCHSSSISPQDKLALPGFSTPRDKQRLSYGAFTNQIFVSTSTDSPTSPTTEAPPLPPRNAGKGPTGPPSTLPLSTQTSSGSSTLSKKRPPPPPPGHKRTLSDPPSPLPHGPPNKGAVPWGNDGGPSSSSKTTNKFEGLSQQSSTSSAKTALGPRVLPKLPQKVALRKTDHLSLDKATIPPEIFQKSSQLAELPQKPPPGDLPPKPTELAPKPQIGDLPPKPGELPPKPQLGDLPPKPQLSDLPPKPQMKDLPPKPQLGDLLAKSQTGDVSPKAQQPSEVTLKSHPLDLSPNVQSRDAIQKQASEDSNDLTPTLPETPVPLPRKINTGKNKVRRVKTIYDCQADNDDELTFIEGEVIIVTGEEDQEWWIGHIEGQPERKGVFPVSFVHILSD

[13] = T. cruzi growth inhibition in host cells, dose response, cell-based, plate reader, dry powder, set 2 (AID 652275); assay type: functional
[14] = target: Protein Wnt-3a (Mus musculus, UniProt P27467); assay: SAR analysis of small molecule antagonists of Gli-SUFU in a Wnt3a luminescent reporter assay.; assay type: functional
Chain of Protein Wnt-3a (P27467 whole entry): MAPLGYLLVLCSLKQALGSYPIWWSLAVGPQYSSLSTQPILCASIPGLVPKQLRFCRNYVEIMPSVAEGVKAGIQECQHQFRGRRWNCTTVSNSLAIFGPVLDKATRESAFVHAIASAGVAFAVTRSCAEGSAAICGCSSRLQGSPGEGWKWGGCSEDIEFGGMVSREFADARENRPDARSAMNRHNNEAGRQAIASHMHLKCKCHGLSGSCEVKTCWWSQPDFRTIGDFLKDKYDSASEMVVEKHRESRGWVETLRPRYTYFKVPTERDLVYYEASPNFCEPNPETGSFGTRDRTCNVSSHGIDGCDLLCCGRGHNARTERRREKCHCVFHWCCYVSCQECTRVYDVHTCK

[15] = A Cell-Based Confirmatory Screen for Compounds that Inhibit VEEV, TC-83 (8).; assay type: functional
[16] = A Cell-Based Confirmatory Screen for Compounds that Inhibit VEEV, TC-83 (7).; assay type: functional
[17] = MITF Orthogonal Assay: SK-MEL-5 CTG Assay Measured in Cell-Based System Using Plate Reader - 2084-02_Inhibitor_Dose_DryPowder_Activity_Set7.; assay type: functional
[18] = MITF: Counter assay: A375 proliferation Measured in Cell-Based System Using Plate Reader - 2084-03_Inhibitor_Dose_DryPowder_Activity_Set8.; assay type: functional; conditions: A-375
[19] = inhibitors of TRPM1-promoter reporter in SK-MEL-5 – cell-based, luciferase, dry powder, set 8, MITF inhibitor project, dose response (AID 624430); assay type: functional
[20] = viability loss in A549 lung cancer cells – cell-based, CellTiter-Glo luminescence, dry powder, set 3, cytotoxicity control, dose response (AID 743146); assay type: functional
[21] = viability loss in HEK293 kidney cells – cell-based, cherry-picks, set 5, cytotoxicity control, dose response (AID 1053117); assay type: functional

Chain of Kallikrein-7 (P49862 whole entry): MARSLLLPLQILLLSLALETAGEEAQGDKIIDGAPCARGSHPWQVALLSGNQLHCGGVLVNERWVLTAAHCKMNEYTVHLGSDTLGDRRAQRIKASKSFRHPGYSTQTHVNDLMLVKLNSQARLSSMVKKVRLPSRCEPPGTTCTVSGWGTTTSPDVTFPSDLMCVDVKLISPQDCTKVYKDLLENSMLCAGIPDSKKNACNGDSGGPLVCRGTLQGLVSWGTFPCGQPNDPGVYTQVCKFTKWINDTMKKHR

COc1cc2c(cc1OC)C(=O)CC(C)S2 (stereo unspecified)
EC50 [1]: 8.28 µM (active) | EC50 [2]: > 7.73 µM (active)

CCCn1nc(C(=O)Nc2ccc3nc(N4CCOCC4)sc3c2)ccc1=O
AC50 [3]: 1.85 µM (active) | AC50 [4]: 67.1 µM (active) | AC50 [5]: 1.04 µM (active) | AC50 [6]: > 70 µM (inactive) | AC50 [7]: 10.3 µM (active) | AC50 [8]: > 70 µM (inactive)

O=C(NCc1ccccc1C(F)(F)F)c1cccc2c1C(=O)c1ccc(N3CCCCC3)cc1S2(=O)=O
EC50 [9]: 5.37 µM (active) | AC50 [10]: > 52 µM (inactive)

COc1ccccc1C=NNC(=O)NN=Cc1ccccc1OC
IC50 [11]: 25.6 µM (inactive) | IC50 [12]: 23.2 µM (inactive)

CC(C)(C)[S@@+]([O-])N1Cc2cc(C(=O)NCc3ccc4c(c3)OCO4)nc(-c3cccc(-c4cccnc4)c3)c2[C@H]1CCO
AC50 [13]: 1.67 µM (active)

O=C(Nc1cc(N2CCCCC2)ncn1)c1ccccc1C(F)(F)F
IC50 [14]: 6.48 µM (active)

CN1CCN(C)/C(=N/c2ccc([N+](=O)[O-])cc2C(=O)Nc2ccccc2)C1
IC50 [15]: < 0.073 µM (active) | IC50 [16]: < 0.04 µM (active)

CC(C)N1CCN(C2=C(Nc3cccc(Cl)c3)C(=O)c3ccccc3C2=O)CC1
AC50 [17]: 7.16 µM (active) | AC50 [18]: 30.1 µM (active) | AC50 [19]: 2.47 µM (active)

O=C(CCNC(=O)c1ccc(Cl)cc1)N[C@H]1CCCc2ccccc21
AC50 [20]: > 52 µM (inactive)

O=S(=O)(c1cccc(F)c1)N1CC[C@@H]2[C@H]1c1cc(-c3cccc(F)c3)ccc1N[C@@H]2CO
AC50 [21]: 33.9 µM (active)
